Where two headings read alike, the source gives them in different places.

Our source for the IC50, CC50 and melting point values is US10519098B2, “Aromatic derivatives as anti-malarial” (Council of Scientific & Industrial Research, priority 2014, dated 2019).

The subject of data set [1] is Chloroquine-sensitive (3D7) strain of P. falciparum. In words: Malaria SYBR Green I-based fluorescence (MSF) assay, 3D7 strain. The note with it: Plasmodium falciparum. Format: cell-based. Here is the method:
(§1) The stock (5 mg/mL or 10 mM) solutions of extracts were prepared in DMSO and required dilutions were made in culture medium.
(§2) Two-fold serial dilutions of test samples were made in 96 well plates and incubated with 1.0% parasitized cell suspension containing 0.8% parasitaemia (Asynchronous culture with more than 80% ring stages). The plates were incubated at 37° C. in CO2 incubator in an atmosphere of 5% CO2 and air mixture. 72 hours later 100 μL of lysis buffer containing 2× concentration of SYBR Green-I (Invitrogen) was added to each well and incubated for one hour at 37° C. The plates were examined at 485±20 nm of excitation and 530±20 nm of emission for relative fluorescence units (RFUs) per well using the fluorescence plate reader (FLX800, BIOTEK). IC50 values were obtained by Logit regression analysis of dose response curves (Singh et al. 2011).

In data set [2] the test system is Chloroquine-resistant (K1) strain of P. falciparum. In words: Malaria SYBR Green I-based fluorescence (MSF) assay, K1 strain. Format: cell-based. Conditions: Plasmodium falciparum. Here is the method: as §1, §2
A short description of a further data set: in vitro. The note with it: monkey. Here is the method: The cells were incubated with test sample dilutions for 72 h and MTT was used as reagent for detection of cytotoxicity. Podophyllotoxin (SIGMA) was used as the standard reference drug.
The mark [3] stands for this setting: P. falciparum 3D7, 72 hours incubation, read-out: IC50 against 3D7.
Where [4] appears, read: P. falciparum K1, 72 hours incubation, read-out: IC50 against K1.
Where [5] appears, read: 3D7, range given for listed compounds, read-out: IC50 values against 3D7 culture.
[6] abbreviates: K1, range given for listed compounds, read-out: IC50 values against K1 culture.

For the molecule `CCN(CC)CCCC(C)Nc1ccnc2cc(Cl)ccc12` (centres unmarked) [CQ, Chloroquine, reference compound], the half-maximal inhibitory concentration (IC50) in data set [1] (3D7, 72 h, read-out: IC50 against 3D7) turned out to be 0.005 µM; in data set [2] (K1, 72 h, read-out: IC50 against K1), 0.25 ± 0.02 µM.

Molecule `COc1ccc([C@H](CNC(=O)/C=C/c2ccccc2)OC(=O)/C=C/c2ccccc2)cc1OC` [Compound 2, (R)-2-cinnamamido-1-(3,4-dimethoxyphenyl)ethyl cinnamate] showed a melting point of 123 to 125 °C. Further, the concentration for half-maximal inhibition (IC50) in data set [1] (setting [3]) is over 5 µM. This molecule also gave a CC50 at 72 h in “in vitro” of 66.7 µM.

As for `COc1ccc([C@@H](COC(=O)/C=C/c2ccccc2)OC(=O)/C=C/c2ccccc2)cc1OC` [Compound 3, (S)-1-(3,4-dimethoxyphenyl)ethane-1,2-diyl(2E,2′E)-bis(3-phenyl acrylate)], the IC50 in data set [1] (setting [3]) is over 5 µM. In “in vitro”, this molecule displayed a CC50 at 72 h of 24.3 µM.

On to `COc1ccc([C@H](COC(=O)/C=C/c2ccccc2)OC(=O)/C=C/c2ccccc2)cc1OC` [Compound 4, (R)-1-(3,4-dimethoxyphenyl)ethane-1,2-diyl (2E,2′E)-bis(3-phenyl acrylate)], for which the IC50 in data set [1] (setting [3]) and in data set [2] (setting [4]) was over 5 µM in each case. The CC50 at 72 h in “in vitro” was found to be 5.87 µM.

The molecule `COc1cc([C@H](CNC(=O)/C=C/c2ccccc2)OC(=O)/C=C/c2ccccc2)cc(OC)c1OC` [Compound 6, (R)-2-cinnamamido-1-(3,4,5-trimethoxyphenyl)ethyl cinnamate] yielded a melting point of 126 to 127 °C. For the same molecule, the half-inhibitory concentration (IC50) in data set [1] (setting [3]) was over 5 µM. Also, the CC50 at 72 h in the data set “in vitro” came to 5.08 µM.

Turning to `COc1cc([C@@H](COC(=O)/C=C/c2ccccc2)OC(=O)/C=C/c2ccccc2)cc(OC)c1OC` [Compound 7, (S)-1-(3,4,5-trimethoxyphenyl)ethane-1,2-diyl(2E,2′E)-bis(3-phenyl acrylate)], the IC50 in data set [1] (setting [5]) is 2 to 7 µM; in data set [1] (setting [3]) it was 3.37 µM; in data set [2] (setting [6]) it was 1.5 to 4 µM; in data set [2] (setting [4]), 3.47 µM. The molecule also displayed a CC50 at 72 h in the data set “in vitro” of 6.44 µM.

As for `COc1cc([C@H](COC(=O)/C=C/c2ccccc2)OC(=O)/C=C/c2ccccc2)cc(OC)c1OC` [Compound 8, (R)-1-(3,4,5-trimethoxyphenyl)ethane-1,2-diyl (2E,2′E)-bis(3-phenyl acrylate)], in data set [1] (setting [3]), the IC50 was over 5 µM. In addition, the CC50 at 72 h in “in vitro” was 122 µM.

In the case of `COc1ccccc1[C@H](CNC(=O)/C=C/c1ccccc1)OC(=O)/C=C/c1ccccc1` [Compound 10, (R)-2-cinnamamido-1-(2-methoxyphenyl)ethyl cinnamate], the melting point fell in the range of 112 to 114 °C. Also, the IC50 in data set [1] (setting [3]) is over 5 µM. The CC50 at 72 h in “in vitro” is 117 µM.

In the case of `COc1ccccc1[C@@H](COC(=O)/C=C/c1ccccc1)OC(=O)/C=C/c1ccccc1` [Compound 11, (S)-1-(2-methoxyphenyl)ethane-1,2-diyl (2E,2′E)-bis(3-phenylacrylate)], the IC50 in data set [1] (setting [5]) was 2 to 7 µM; in data set [1] (setting [3]) it was 3.8 µM; in data set [2] (setting [6]) it was 1.5 to 4 µM; in data set [2] (setting [4]) it was 3.23 µM. This molecule yielded a CC50 at 72 h in “in vitro” of 14 µM.

On to `COc1ccccc1[C@H](COC(=O)/C=C/c1ccccc1)OC(=O)/C=C/c1ccccc1` [Compound 12, (R)-1-(2-methoxyphenyl)ethane-1,2-diyl (2E,2′E)-bis(3-phenylacrylate)], for which, in data set [1] (setting [3]), the half-inhibitory concentration (IC50) is over 5 µM. In “in vitro”, this molecule showed a CC50 at 72 h of 51.7 µM.

With `COc1cccc([C@@H](CNC(=O)/C=C/c2ccccc2)OC(=O)/C=C/c2ccccc2)c1` [Compound 13, (S)-2-cinnamamido-1-(3-methoxyphenyl)ethyl cinnamate], the melting point lay in the range of 139 to 141 °C. Also, the 50% inhibitory concentration (IC50) in data set [1] (setting [3]) was over 5 µM. For the same molecule, in “in vitro”, the CC50 at 72 h was found to be 148 µM.

In turn, `COc1cccc([C@H](CNC(=O)/C=C/c2ccccc2)OC(=O)/C=C/c2ccccc2)c1` [Compound 14, (R)-2-cinnamamido-1-(3-methoxyphenyl)ethyl cinnamate] returned a melting point of 138 to 140 °C. Further, the half-inhibitory concentration (IC50) in data set [1] (setting [3]) was over 5 µM. This molecule also displayed a CC50 at 72 h in the data set “in vitro” of 62.7 µM.

The molecule `COc1cccc([C@@H](COC(=O)/C=C/c2ccccc2)OC(=O)/C=C/c2ccccc2)c1` [Compound 15, (S)-1-(3-methoxyphenyl)ethane-1,2-diyl (2E,2′E)-bis(3-phenylacrylate)] came in with a melting point of 67 to 69 °C. Besides, the IC50 in data set [1] (setting [3]) is over 5 µM. The molecule further showed a CC50 at 72 h in the data set “in vitro” of 61.9 µM.

Turning to `COc1ccc([C@@H](CNC(=O)/C=C/c2ccccc2)OC(=O)/C=C/c2ccccc2)cc1` [Compound 17, (S)-2-cinnamamido-1-(4-methoxyphenyl)ethyl cinnamate], the melting point was 137 to 139 °C. Besides, the IC50 in data set [1] (setting [3]) was over 5 µM.

`COc1ccc([C@H](CNC(=O)/C=C/c2ccccc2)OC(=O)/C=C/c2ccccc2)cc1` [Compound 18, (R)-2-cinnamamido-1-(4-methoxyphenyl)ethyl cinnamate] showed a melting point of 138 to 140 °C. Besides, the half-inhibitory concentration (IC50) in data set [1] (setting [3]) was over 5 µM.

In the case of `COc1cccc([C@@H](COC(=O)/C=C/c2ccccc2)OC(=O)/C=C/c2ccccc2)c1OC` [Compound 23, (S)-1-(2,3-dimethoxyphenyl)ethane-1,2-diyl (2E,2′E)-bis(3-phenyl acrylate)], the IC50 in data set [1] (setting [3]) was over 5 µM. This molecule yielded a CC50 at 72 h in the data set “in vitro” of 28.4 µM.

As for `COc1cccc([C@H](COC(=O)/C=C/c2ccccc2)OC(=O)/C=C/c2ccccc2)c1OC` [Compound 24, (R)-1-(2,3-dimethoxyphenyl)ethane-1,2-diyl(2E,2′E)-bis(3-phenyl acrylate)], the half-inhibitory concentration (IC50) in data set [1] (setting [3]) is over 5 µM. In addition, the CC50 at 72 h in “in vitro” was 82.7 µM.

Turning to `O=C(/C=C/c1ccccc1)OC[C@@H](OC(=O)/C=C/c1ccccc1)c1cccc2c1OCO2` [Compound 37, (S)-1-(benzo[d][1,3]dioxol-4-yl)ethane-1,2-diyl(2E,2′E)-bis(3-phenyl acrylate)], the 50% inhibitory concentration (IC50) in data set [1] (setting [3]) and in data set [2] (setting [4]) was over 10 µM each time. The same molecule registered a CC50 at 72 h in “in vitro” of over 200 µM.

As to `O=C(/C=C/c1ccccc1)OC[C@H](OC(=O)/C=C/c1ccccc1)c1cccc2c1OCO2` [Compound 38, (R)-1-(benzo[d][1,3]dioxol-4-yl)ethane-1,2-diyl(2E,2′E)-bis(3-phenyl acrylate)], the figures for the half-inhibitory concentration (IC50) in data set [1] (setting [3]) and in data set [2] (setting [4]) were 7.42 µM and over 10 µM, respectively. Moreover, the CC50 at 72 h in the data set “in vitro” is over 200 µM.

With `CCCC(=O)NC[C@@H](OC(=O)CCC)c1ccc(OC)c(OC)c1` [Compound 45, (S)-2-butyramido-1-(3,4-dimethoxyphenyl)ethyl butyrate], the IC50 in data set [1] (setting [3]) and in data set [2] (setting [4]) was over 10 µM each time. The CC50 at 72 h in “in vitro” amounted to 51.8 µM.

Turning to `COc1ccc([C@@H](CNC(=O)/C=C/c2ccccc2O[Si](C)(C)C(C)(C)C)OC(=O)/C=C/c2ccccc2O[Si](C)(C)C(C)(C)C)cc1OC` [Compound 46, (S)-2-((E)-3-(2-((tert-butyldimethylsilyl)oxy)phenyl)acrylamido)-1-(3,4-dimethoxyphenyl)ethyl (E)-3-(2-((tert-butyldimethylsilyl)oxy)phenyl)acrylate], the figures for the IC50 in data set [1] (setting [3]) and in data set [2] (setting [4]) were 8.49 µM and 4.56 µM, respectively. In the data set “in vitro”, this molecule returned a CC50 at 72 h of 58.9 µM.

On to `COc1ccc([C@@H](CNC(=O)/C=C/c2cccc(O[Si](C)(C)C(C)(C)C)c2)OC(=O)/C=C/c2cccc(O[Si](C)(C)C(C)(C)C)c2)cc1OC` [Compound 47, (S)-2-((E)-3-(3-((tert-butyldimethylsilyl)oxy)phenyl)acrylamido)-1-(3,4-dimethoxyphenyl)ethyl (E)-3-(3-((tert-butyldimethylsilyl)oxy)phenyl)acrylate], for which the concentration for half-maximal inhibition (IC50) in data set [1] (setting [3]) was over 10 µM; in data set [2] (setting [4]) it was 7.52 µM. The CC50 at 72 h in “in vitro” worked out at 52.6 µM.

A word on the IC50: it is the concentration that inhibits the measured activity by half. One may read the melting point as the temperature of the solid-liquid transition.
